Read-outs that look alike come from different tables or passages of the source.
Columns and labels:
Type in all cases: cell-based
[1] = target: T1, human TLR7 (Homo sapiens, UniProt Q9NYK1); experiment: TLR7 inhibition reporter assay (HEK-Blue cells, secreted embryonic alkaline phosphatase reporter); conditions: HEK-Blue cells overexpressing human TLR7, stimulated with gardiquimod 7.5 μM; read-out: TLR 7 IC50
T1 construct: host or cells: HEK-Blue cells (HEK293-derived reporter line)
T1 sequence (Q9NYK1 27-1049): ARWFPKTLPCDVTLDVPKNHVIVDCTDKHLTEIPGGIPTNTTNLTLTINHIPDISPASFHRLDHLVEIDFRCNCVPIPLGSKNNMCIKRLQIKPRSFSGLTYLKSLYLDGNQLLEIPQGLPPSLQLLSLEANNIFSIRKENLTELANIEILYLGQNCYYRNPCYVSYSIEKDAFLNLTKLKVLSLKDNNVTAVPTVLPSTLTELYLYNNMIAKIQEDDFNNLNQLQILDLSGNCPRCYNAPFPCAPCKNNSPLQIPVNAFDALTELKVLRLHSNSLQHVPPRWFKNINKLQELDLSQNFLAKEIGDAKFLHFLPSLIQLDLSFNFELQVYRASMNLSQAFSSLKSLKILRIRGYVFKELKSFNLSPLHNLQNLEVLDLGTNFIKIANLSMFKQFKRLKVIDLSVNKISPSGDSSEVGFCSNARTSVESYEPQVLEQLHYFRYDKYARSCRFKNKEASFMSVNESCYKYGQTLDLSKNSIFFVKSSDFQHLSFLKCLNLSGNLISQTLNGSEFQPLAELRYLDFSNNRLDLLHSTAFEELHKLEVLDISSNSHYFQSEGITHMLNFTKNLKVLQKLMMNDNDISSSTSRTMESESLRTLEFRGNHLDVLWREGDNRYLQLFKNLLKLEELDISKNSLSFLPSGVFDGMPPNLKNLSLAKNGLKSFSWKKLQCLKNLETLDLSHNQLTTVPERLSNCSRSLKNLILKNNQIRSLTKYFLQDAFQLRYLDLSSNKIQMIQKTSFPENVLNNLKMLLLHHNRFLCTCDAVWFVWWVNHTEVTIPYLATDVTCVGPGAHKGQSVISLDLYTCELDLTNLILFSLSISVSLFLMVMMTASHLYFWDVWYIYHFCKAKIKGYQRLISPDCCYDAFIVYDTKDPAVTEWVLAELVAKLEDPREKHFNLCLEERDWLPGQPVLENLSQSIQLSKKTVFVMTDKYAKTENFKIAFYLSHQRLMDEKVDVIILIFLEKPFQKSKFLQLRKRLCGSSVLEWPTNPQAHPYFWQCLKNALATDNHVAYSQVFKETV
Description: (§1) TLR7/8/9 Inhibition Reporter Assays
(§2) HEK-Blue™-cells (Invivogen) overexpressing human TLR7, TLR8 or TLR9 receptors were used for screening inhibitors of these receptors using an inducible SLAP (secreted embryonic alkaline phosphatase) reporter gene under the control of the […] minimal promoter fused to five NF-κB and AP-1-binding sites. Briefly, cells are seeded into Greiner 384 well plates (15000 cells per well for TLR7, 20,000 for TLR8 and 25,000 for TLR9) and then treated with test compounds in DMSO to yield a final dose response concentration range of 0.05 nM-50 μM. After a 30 minute compound pre-treatment at room temperature, the cells are then stimulated with a TLR7 ligand (gardiquimod at a final concentration of 7.5 μM), TLR8 ligand (R848 at a final concentration of 15.9 μM) or TLR9 ligand (ODN2006 at a final concentration of 5 nM) to activate NF-κB and AP-1 which induce the production of SLAP. After a 22 hour incubation at 37° C., […], SLAP levels are determined with the addition of HEK-Blue™ Detection reagent (Invivogen), a cell culture medium that allows for detection of SLAP, according to manufacturer's specifications. The percent inhibition is determined as the […] in the HEK-Blue signal present in wells treated with agonist plus DMSO alone compared to wells treated with a known inhibitor.

[2] = target: T2, human TLR8 (Homo sapiens, UniProt Q9NR97); experiment: TLR8 inhibition reporter assay (HEK-Blue cells, secreted embryonic alkaline phosphatase reporter); conditions: HEK-Blue cells overexpressing human TLR8, stimulated with R848 15.9 μM; read-out: TLR 8 IC50
T2 construct: host or cells: HEK-Blue cells (HEK293-derived reporter line)
T2 sequence (Q9NR97 27-1041): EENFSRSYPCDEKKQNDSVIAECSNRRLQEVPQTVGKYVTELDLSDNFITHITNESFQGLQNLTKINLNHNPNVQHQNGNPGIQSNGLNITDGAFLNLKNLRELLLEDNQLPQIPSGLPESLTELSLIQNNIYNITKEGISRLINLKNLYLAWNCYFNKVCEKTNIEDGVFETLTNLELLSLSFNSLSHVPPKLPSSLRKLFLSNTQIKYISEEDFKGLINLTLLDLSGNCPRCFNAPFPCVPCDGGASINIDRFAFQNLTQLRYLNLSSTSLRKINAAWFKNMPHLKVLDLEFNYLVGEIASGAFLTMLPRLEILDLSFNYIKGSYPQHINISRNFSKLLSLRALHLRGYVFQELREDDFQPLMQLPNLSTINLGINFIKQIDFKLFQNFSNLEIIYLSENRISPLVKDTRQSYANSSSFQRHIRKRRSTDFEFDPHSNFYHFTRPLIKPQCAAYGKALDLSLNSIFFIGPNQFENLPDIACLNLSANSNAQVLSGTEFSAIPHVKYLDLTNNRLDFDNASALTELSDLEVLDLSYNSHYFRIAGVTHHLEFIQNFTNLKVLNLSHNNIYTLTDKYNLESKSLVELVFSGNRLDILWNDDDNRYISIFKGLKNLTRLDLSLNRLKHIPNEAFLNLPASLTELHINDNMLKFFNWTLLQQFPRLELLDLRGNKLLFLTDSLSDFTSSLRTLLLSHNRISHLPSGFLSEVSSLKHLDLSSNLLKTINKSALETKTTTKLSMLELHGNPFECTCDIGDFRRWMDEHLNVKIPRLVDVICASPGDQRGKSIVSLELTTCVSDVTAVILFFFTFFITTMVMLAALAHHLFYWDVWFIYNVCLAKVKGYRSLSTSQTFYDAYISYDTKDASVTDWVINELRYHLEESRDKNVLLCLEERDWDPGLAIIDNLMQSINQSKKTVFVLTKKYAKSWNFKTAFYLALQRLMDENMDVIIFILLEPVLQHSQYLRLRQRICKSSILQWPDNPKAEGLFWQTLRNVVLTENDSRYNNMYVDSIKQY
Description: as §1, §2

[3] = target: T3, human TLR9 (Homo sapiens, UniProt Q9NR96); experiment: TLR9 inhibition reporter assay (HEK-Blue cells, secreted embryonic alkaline phosphatase reporter)
T3 construct: host or cells: HEK-Blue cells (HEK293-derived reporter line)
T3 sequence (Q9NR96 26-1032): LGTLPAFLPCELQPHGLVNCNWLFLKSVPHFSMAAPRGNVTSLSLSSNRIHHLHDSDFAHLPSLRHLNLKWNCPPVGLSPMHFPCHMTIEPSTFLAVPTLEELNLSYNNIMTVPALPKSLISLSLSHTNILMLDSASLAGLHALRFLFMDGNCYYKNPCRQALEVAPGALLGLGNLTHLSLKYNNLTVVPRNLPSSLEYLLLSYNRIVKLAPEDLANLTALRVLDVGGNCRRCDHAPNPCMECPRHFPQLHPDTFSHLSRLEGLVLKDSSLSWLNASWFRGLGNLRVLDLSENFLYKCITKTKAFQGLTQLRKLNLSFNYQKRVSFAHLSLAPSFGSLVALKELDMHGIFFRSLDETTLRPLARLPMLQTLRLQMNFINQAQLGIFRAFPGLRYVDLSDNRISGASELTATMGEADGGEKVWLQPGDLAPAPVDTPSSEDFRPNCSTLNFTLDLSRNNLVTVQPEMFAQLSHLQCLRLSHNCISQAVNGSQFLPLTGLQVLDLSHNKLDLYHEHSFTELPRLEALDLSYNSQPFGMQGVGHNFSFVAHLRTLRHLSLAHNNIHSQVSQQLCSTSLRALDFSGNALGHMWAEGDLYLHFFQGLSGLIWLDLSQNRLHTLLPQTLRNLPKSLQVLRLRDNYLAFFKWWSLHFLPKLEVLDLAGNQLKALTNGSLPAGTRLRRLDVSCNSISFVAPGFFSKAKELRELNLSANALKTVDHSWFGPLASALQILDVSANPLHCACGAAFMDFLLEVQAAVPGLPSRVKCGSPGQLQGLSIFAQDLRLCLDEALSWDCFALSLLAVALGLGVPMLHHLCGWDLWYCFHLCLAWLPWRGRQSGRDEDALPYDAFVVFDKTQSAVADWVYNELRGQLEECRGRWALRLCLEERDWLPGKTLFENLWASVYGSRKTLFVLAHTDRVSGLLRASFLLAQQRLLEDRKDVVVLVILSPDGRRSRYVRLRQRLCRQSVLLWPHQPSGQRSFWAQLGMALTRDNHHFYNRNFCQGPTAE
Outline: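 HEK-Blue cells expressing human TLR7, TLR8 or TLR9 with an NF-κB/AP-1-driven SEAP reporter were pretreated with compound (0.05 nM–50 μM final) for 30 min at room temperature. Agonists were gardiquimod 7.5 μM for TLR7, R848 15.9 μM for TLR8 and ODN2006 5 nM for TLR9. SEAP was read after 22 h at 37 °C, and inhibition was calculated relative to agonist-plus-DMSO and known-inhibitor controls.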

[4] = HEK-Blue cells overexpressing human TLR9, stimulated with ODN2006 5 nM, 22 hour incubation, reporter readout
[5] = HEK-Blue cells overexpressing human TLR9, stimulated with ODN2006 5 nM, read-out: TLR 9 IC50

Structure (SMILES)	IC50 [1] [nM]	IC50 [2] [nM]	IC50 [3, 4] [nM]	IC50 [3, 5] [nM]	IC50 ([3]; HEK-Blue human TLR9 reporter cells) [nM]	IC50 [3] [nM]
COc1ccc(-c2nc3ccc(C4CCN(C5CCN(CC(C)C)CC5)CC4)cc3[nH]2)cc1OC [Example 28, 2-(3,4-dimethoxyphenyl)-6-(1′-isobutyl-[1,4′-bipiperidin]-4-yl)-1H-benzo[d]imidazole]	2700	> 50000	19	19	–	–
Cn1c(-c2ccc(S(C)(=O)=O)cc2)nc2c(F)cc(C3CCN(C4CC5CCC(C4)N5C4CCC4)CC3)cc21 (single isomer, unassigned) [Example 293, 6-(1-(8-cyclobutyl-8-azabicyclo[3.2.1]octan-3-yl)piperidin-4-yl)-4-fluoro-1-methyl-2-(4-(methylsulfonyl)phenyl)-1H-benzo[d]imidazole]	8200	44200	–	11	11	–
Cc1cc(-c2ccc(CN3CCC(N4CCC4)CC3)c(F)c2)cc2c1nc(-c1ccc(S(C)(=O)=O)cc1)n2C [Example 403, 6-(4-((4-(azetidin-1-yl)piperidin-1-yl)methyl)-3-fluorophenyl)-1,4-dimethyl-2-(4-(methylsulfonyl)phenyl)-1H-benzo[d]imidazole]	300	15800	81	94	–	–
COc1ccc(-c2nc3c(C)cc(C4CCN(C5CCN(CC(C)C)CC5)CC4)cc3[nH]2)cc1OC [Example 43, 2-(3,4-dimethoxyphenyl)-6-(1′-isobutyl-[1,4′-bipiperidin]-4-yl)-4-methyl-1H-benzo[d]imidazole tris(2,2,2-trifluoroacetate)]	650	31000	9.8	9.8	–	–

Other lines, results leading:

IC50 [1] [nM]	IC50 [2] [nM]	IC50 [3, 4] [nM]	IC50 [3, 5] [nM]	IC50 ([3]; HEK-Blue human TLR9 reporter cells) [nM]	IC50 [3] [nM]	Structure (SMILES)
7100	> 50000	19	–	–	–	COc1ccc(-c2nc3c(C)cc(C4CCN(C5CCN(CC(C)C)CC5)CC4)cc3n2C)cc1OC [Example 15, 2-(3,4-dimethoxyphenyl)-6-(1′-isobutyl-[1,4′-bipiperidin]-4-yl)-1,4-dimethyl-1H-benzo[d]imidazole tris(2,2,2-trifluoroacetate)]
21300	> 50000	–	114	–	110	Cn1c(-c2ccc(S(C)(=O)=O)cc2)nc2cc(C3CCN(C4CCN(C5CCC5)CC4)CC3)cc(F)c21 [Example 205, 5-(1′-cyclobutyl-[1,4′-bipiperidin]-4-yl)-7-fluoro-1-methyl-2-(4-(methylsulfonyl)phenyl)-1H-benzo[d]imidazole]
7200	> 50000	13	13	–	–	COc1ccc(-c2nc3c(C)cc(C4CCN(C5CC6(C5)CN(CC(C)C)C6)CC4)cc3n2C)cc1OC [Example 47, 2-(3,4-dimethoxyphenyl)-6-(1-(2-isobutyl-2-azaspiro[3.3]heptan-6-yl)piperidin-4-yl)-1,4-dimethyl-1H-benzo[d]imidazole tris(2,2,2-trifluoroacetate)]
17600	> 50000	–	315	–	320	Cn1c(-c2ccc(S(C)(=O)=O)cc2)nc2cc(C3CCN(C4CC5CCC(C4)N5C4CCOCC4)CC3)c(F)cc21 (single isomer, unassigned) [Example 256, 6-fluoro-1-methyl-2-(4-(methylsulfonyl)phenyl)-5-(1-(8-(tetrahydro-2H-pyran-4-yl)-8-azabicyclo[3.2.1]octan-3-yl)piperidin-4-yl)-1H-benzo[d]imidazole]
9100	5500	52	52	–	–	COc1ccc(-c2nc3c(C)cc(C4CCN(C5CCN(C6CC6)CC5)CC4)cc3[nH]2)cc1OC [Example 44, 6-(1′-cyclopropyl-[1,4′-bipiperidin]-4-yl)-2-(3,4-dimethoxyphenyl)-4-methyl-1H-benzo[d]imidazole]

Source: US12492188B2, “1H-benzo[D]imidazole derivatives as TLR9 inhibitors for the treatment of fibrosis” (BRISTOL-MYERS SQUIBB COMPANY, priority 2020, dated 2025)
